Data set [1] concerns SYK. Description: SYK activation in RBL-2H3 mast cells after IgE receptor crosslinking. The following applies: 30 μM.
Description: Cells were lysed at the indicated time points, and SYK immune complexes were subjected to kinase assays in the presence of cold ATP followed by APT immunoblotting (upper panels in 8C & 8D) as well as to SYK Western blot analysis (lower panels in 8C & 8D).
Immune-Complex Kinase Assays and Western Blot Analyses of Mast Cell Lysates. […] Cells were harvested, lysed (10 mM Tris pH 7.6, 100 mM NaCl, 1% Nonidet P-40, 10% glycerol, 50 mM NaF, 100 mM Na3VO4, 50 mg/ml phenylmethylsulfonyl fluoride, 10 mg/ml aprotonin, 10 mg/ml leupeptin), and the kinases were immunoprecipitated from the lysates, as reported (Uckun et. al., 1995, Science, 267:886-891; Uckun et. al., 1996, Science, 273:1096-1100). […] Immunoprecipitations, and immunoblotting using the ECL chemiluminescence detection system (Amersham Life Sciences) were conducted as described previously (Uckun et. al., 1996, Science, 273:1096-1100).
The target in data set [2] is T1, SYK (Homo sapiens, UniProt P43405).
T1 construct: made in house; host or cells: Sf21 insect cells, baculovirus
Description: Immune complex kinase assay, SYK from Sf21 cells. It counts as biochemical. The following applies: concentrations as high as 350 μM. An excerpt: Immune Complex Kinase Assays.

Data set [3] deals with JAK3-dependent STAT activation. Nature of the data set: EMSA, IL-2 triggered STAT activation in 32Dc11/IL2Rβ cells. Format: cell-based. The method, then:
Electrophoretic Mobility Shift Assays (EMSAs). EMSAs were performed to examine the effects of dimethoxyquinazoline compounds on cytokine-induced STAT activation (Goodman et. al., 1998). […] Cells were collected after 15 minutes and resuspended in lysis buffer (100 mM Tris-HCl pH 8.0, 0.5% NP-40, 10% glycerol, […], 0.1 mM NaVO3, 50 mM NaF, 150 mM NaCl, 1 mM DTT, 3 μg/ml Aprotinin, 2 μg/ml Pepstatin A, 1 μg/ml Leupeptin and 0.2 mM PMSF). Lysates were precleared by centrifugation for 30 min. Cell extracts (approximately 10 μg) were incubated with 2 μg of poly(dI-dC) for 30 minutes, followed by a 30 minutes incubation with 1ng of poly. nucleotide kinase-^32P labeled double stranded DNA oligonucleotide representing the IRF-1 STAT DNA binding sequence (Santa Cruz Biotechnology, Santa Cruz, Calif.). Samples were resolved by non-denaturing PAGE and visualized by autoradiography.
(Mobility shift assays separate free from complexed probe on a gel.)

For the next data set, the system named is RBL-2H3 mast cells. Description: IgE/antigen-induced activation (cell spreading, microtubule organization) by confocal microscopy. Format: cell-based, rat. The following applies: 30 μM, two hour incubation. The method, then: RBL-2H3 cells were cultured overnight on 22×22 mm coverslips at a cell density of 0.01×10^6/ml with […] DNP-IgE. Sensitized RBL-2H3 cells were then treated with 30 μM WHI-P131, vehicle, or control compounds WHI-P258 and WHI-P112 prior to challenge with DNP-BSA, as described in the legend of FIG. 4. After stimulation with DNP-BSA for 1 hour, cells were fixed in cold methanol for 15 minutes followed by permeabilization with PBS containing 0.1% Triton X-100. […] After washing 3 times with PBS-0.1% Triton X-100, cells were incubated with fluorescein labeled secondary antibody (Zymed, San Francisco, Calif.) for another 40 minutes. Cells were washed three times to remove unbound antibody. DNA labeling was performed by incubation of coverslips with toto-3 (Molecular Probes, Eugene, Oreg.) for 10 minutes. Excessive dye was washed with PBS-0.1% Triton X-100. Cells were visualized under MRC 1024 Laser Scanning Microscope after mounting with Vectashield (Vector laboratories, Inc, Burlingame, Calif.), as previously reported.
Confocol Microscopy: Staining of mast cells with primary and secondary antibodies followed by confocal laser scanning microscopy was performed as previously described in detail (Uckun et. al., 1998, Clin. Cancer Res., 4:901-912). After staining with appropriate primary and secondary antibodies, cells were washed three times to remove unbound antibody. DNA labeling was performed by incubation of coverslips with toto-3 (Molecular Probes, Eugene, Oreg.) for 10 min. Excessive dye was washed with PBS-0.1% triton X-100. Cells were visualized under MRC 1024 Laser Scanning Microscope after mounting with Vectashield (Vector laboratories, Inc, Burlingame, Calif.).
In a systematic effort aimed at elucidating the biologic consequences of JAK3 inhibition in mast cells, we first sought to determine if the JAK3 inhibitor WHI-P131 could prevent the IgE receptor/FcεRI-mediated activation of mast cells. Since the IgE receptor/FcεRI-mediated activation of mast cells results in a distinct morphologic transformation with marked cell spreading due to membrane ruffling, microtubule formation and actin polymerization (Apgar, 1997), we evaluated the effects of WHI-P131 on the activation-associated transformation of shape and surface topography of RBL-2H3 mast cells using confocal laser scanning microscopy (Ghosh et. al., 1998).

The test system of a further data set is BALB/c mice. Description: Toxicity studies in mice. Format: in vivo. The method, then:
Toxicity Studies in Mice. […] Female BALB/c mice were used and monitored daily for lethargy, cleanliness and morbidity. At the time of death, necropsies were performed and the toxic effects of WHI-P131 administration were assessed. For histopathologic studies, tissues were fixed in 10% neutral buffered formalin, dehydrated, and embedded in paraffin by routine methods. Glass slides with affixed 6 micron tissue sections were prepared and stained with Hemotoxylin and Eosin (H&E). Female BALB/c mice were administered an i.p. bolus injection of WHI-P131 in 0.2 ml PBS supplemented with 10% DMSO, or 0.2 ml PBS supplemented with 10% DMSO alone (control mice). No sedation or anesthesia was used throughout the treatment period. Mice were monitored daily for mortality for determination of the day 30 LD50 values. Mice surviving until the end of the 30 days monitoring were sacrificed and the tissues were immediately collected from randomly selected mice, and preserved in 10% neutral buffered formalin. Standard tissues collected for histologic evaluation included: bone, bone marrow, brain, cecum, heart, kidney, large intestine, liver, lung, lymph node, ovary, pancreas, skeletal muscle, skin, small intestine, spleen, stomach, thymus, thyroid gland, urinary bladder, and uterus (as available).

Data set [4] relates to mouse bone marrow mast cells. The following applies: data not shown.

For the compound `COc1cc2ncnc(Nc3ccc(O)cc3)c2cc1OC` [WHI-P131, 4-(4′-Hydroxylphenyl)-amino-6,7-dimethoxyquinazoline], the “SYK activation after IgE receptor/FcεRI crosslinking” value in the data set with SYK [1] is given as “did not prevent”. Also, the “effect on enzymatic activity of SYK” value on SYK [2] is on record as “did not affect”. Moreover, the “JAK3-dependent STAT activation after stimulation with IL-2” value in data set [3] (10 μg/ml, 32Dc11/IL2Rβ cells) is given as “inhibited”. Also, the “IL-2 triggered JAK-3-dependent STAT activation” value in data set [3] (100 μg/ml in FIG. 6E legend) is listed as “inhibited”. Moreover, in the data set on RBL-2H3 mast cells, the “IgE/antigen-induced mast cell activation (spreading and microtubule organization)” value is given as “prevented”; the “cells spindle shaped after IgE/antigen” value amounted to 58%. For the same compound, the “cells flattened after IgE/antigen” value in the data set on RBL-2H3 mast cells (93% without drug) amounted to 23%. In the data set with BALB/c mice (i.p. single bolus 0.5 mg/kg to 250 mg/kg, 30 day observation), the toxicity result is “not toxic”. Moreover, the “maximum tolerated dose (MTD)” value with BALB/c mice (i.p. single bolus, mice) was greater than 250 mg/kg. Also, the “histopathologic lesions in organs” value in the data set with BALB/c mice (mice killed at 30 days) is on record as “No histopathologic lesions”. Moreover, the “hematologic side effects (neutropenia, lymphopenia, anemia)” value with BALB/c mice (tested dose levels, mice) is recorded as “no hematologic side effects”. In data set [4], the “IgE receptor/FcεRI-mediated release of LTC4” value is recorded as “markedly reduced” and the “IgE receptor/FcεRI-mediated release of histamine” value is listed as “markedly reduced”.

For the origin of these results see patent publication US6452005B1, “JAK-3 inhibitors for treating allergic disorders” (Parker Hughes Institute, priority 1999, dated 2002).
